Measured values reported in US20200000766A1, “COMPOSITIONS AND METHODS FOR AGONIZING THE CB2 RECEPTOR” (priority 2018, published 2020).

Columns and labels:
[1] = system: transient receptor potential (TRP) channels; conditions: cited from earlier work
human CB2 [2] = target: T1, human CB2 (Homo sapiens, UniProt P34972); assay: Cannabinoid Receptor 2 (CB2) activity, calcium FLIPR assay in CHO-K1 cells co-expressing human CB2 and G15; conditions: FIG. 1 and FIG. 2
human CB2 [3] = target: T1, human CB2; set-up: expressed in transfected cells; conditions: cited from earlier work

T1 sequence (P34972 whole entry): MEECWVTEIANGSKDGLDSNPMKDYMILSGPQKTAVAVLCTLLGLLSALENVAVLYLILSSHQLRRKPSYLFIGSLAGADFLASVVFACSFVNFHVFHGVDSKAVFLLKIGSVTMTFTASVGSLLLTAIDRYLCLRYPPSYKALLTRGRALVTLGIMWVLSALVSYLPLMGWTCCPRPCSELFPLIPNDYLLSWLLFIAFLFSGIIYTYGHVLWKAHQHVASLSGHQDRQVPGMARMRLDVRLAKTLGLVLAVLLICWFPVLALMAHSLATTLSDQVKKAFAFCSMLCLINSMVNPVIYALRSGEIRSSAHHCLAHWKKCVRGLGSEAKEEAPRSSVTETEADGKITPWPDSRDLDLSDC

SMILES	agonism at several TRP channels [1]	agonist potency at the human CB2 receptor compared with other phytocannabinoid agonists (CBD, CBCV) (human CB2 [2])	potency at human CB2 receptor relative to CBD (human CB2 [2]; two independent experiments)	agonism at the CB2 receptor (known) (human CB2 [3])
CCCCCc1cc(O)c2c(c1)OC(C)(CCC=C(C)C)C=C2 (stereo not shown) [CBC, cannabichromene]	known agonist at several transient receptor potential (TRP) channels, albeit somewhat weakly	more potent agonist	at least 4 fold	
C=C(C)[C@@H]1CCC(C)=C[C@H]1c1c(O)cc(CCCCC)cc1O [CBD, cannabidiol]				known agonist
